In one series the target is T1, LEDGF/p75 (Homo sapiens, UniProt O75475).
T1 construct: histidine tag; made in house
The experiment in a line: ELISA binding of peptides to LEDGF/p75. The note with it: apparent Kd according to ELISA using LEDGF and BSA alone as control; peptide-coated plates, room temperature, OD 490 nm, duplicate. Here is the method: Expression and purification of the histidine-tagged IN and LEDGF/p75 expression vectors, were a generous gift from Prof. Engelman, Dana-Farber Cancer Institute and Division of AIDS, Harvard Medical School, Boston, MA, USA), were performed essentially as described previously.
Protein-peptide, protein-protein and protein-DNA binding was estimated using an ELISA-based binding assay exactly as described previously. Briefly, Maxisorp plates (Nunc) were incubated at room temperature for 2 h with […] of 10 μg/ml synthetic peptide/recombinant proteins in carbonate buffer. After incubation, the solution was removed, the plates were washed three times with PBS, and 200 μl of 10% BSA (Sigma) in PBS (w/v) was added and the plates were further incubated for 2 h at room temperature. After rewashing with PBS, the tested BSA-biotinilated (Bb) peptide or protein (alone or biotinilated) was added for a further 1-h incubation at room temperature. Following three washes with PBS, the concentration of bound molecules was estimated following the addition of streptavidin-horseradish peroxidase (HRP) conjugate (Sigma), as described previously. The enzymatic activity of HRP was estimated by monitoring the product's optical density (OD) at 490 nm using an ELISA plate reader (Tecan Sunrise, Männedorf, Switzerland). Each measurement was performed in duplicate. […]
(In general: In an ELISA, binding on a coated surface is turned into a signal by an enzyme label.)

The conditions of series [1]: ref [25]; cited from earlier work. The source says:
Following integration of the viral cDNA, several viral proteins are expressed, among them Rev. After its nuclear import the Rev protein is involved in nuclear export of unspliced and partially spliced viral RNA molecules. Thus, similar to IN, the presence the Rev protein is essential for completion of the HIV-1 life cycle. In addition to its expression from integrated viral DNA, Rev can be expressed from unintegrated DNA molecules and thus appear at an early stage in virus-infected cells. Recently, we have shown that early expressed Rev can interact with IN in ...

Where no end group is shown, it is not given here.

T1 sequence (O75475 whole entry): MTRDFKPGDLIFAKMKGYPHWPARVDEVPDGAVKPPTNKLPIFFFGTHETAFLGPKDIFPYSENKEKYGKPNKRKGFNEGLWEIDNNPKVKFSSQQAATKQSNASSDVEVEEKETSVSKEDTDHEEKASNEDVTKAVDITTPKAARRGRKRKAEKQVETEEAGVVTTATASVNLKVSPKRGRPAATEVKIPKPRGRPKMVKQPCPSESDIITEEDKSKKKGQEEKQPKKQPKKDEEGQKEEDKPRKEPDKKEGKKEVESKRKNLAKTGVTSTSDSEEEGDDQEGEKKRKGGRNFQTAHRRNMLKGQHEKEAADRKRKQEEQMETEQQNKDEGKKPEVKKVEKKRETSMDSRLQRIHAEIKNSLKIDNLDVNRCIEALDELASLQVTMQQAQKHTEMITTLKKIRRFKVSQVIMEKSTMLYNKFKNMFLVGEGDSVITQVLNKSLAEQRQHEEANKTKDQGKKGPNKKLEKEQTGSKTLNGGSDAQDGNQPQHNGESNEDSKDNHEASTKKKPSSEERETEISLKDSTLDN

WTAVQMAVFIHNFKRK [INS]: the Kd on LEDGF/p75 is 2.2 ± 0.7 µM. Also, the “cell permeability (result in words)” value in series [1] is recorded as “cell-permeable”.

Source of the values: article PMC2924314, “Peptides derived from the HIV-1 integrase promote HIV-1 infection and multi-integration of viral cDNA in LEDGF/p75-knockdown cells” (Virology Journal, 2010).
